Measured values published in patent US9066965B1, “Purified limonin glucoside for prevention and treatment of chronic diseases” (The United States of America, as represented by the …, priority 2012, dated 2015).
Entries after “also recorded” stand apart in the source; their conditions may differ.

Legend:
[1] = test system: alkaline phosphatase (ALP); details: 500 mg/d, 56 days
Method: (§1) CMP performed on serum samples at the chemistry laboratory of University of California Medical Center by using the Beckman Coulter DxC800. GGT and CKMB were determined in the EDTA plasma. GGT activity was determined by using Integra 400 Chemistry Analyzer, Roche Diagnostics. CKMB concentration was determined by using the Multiplex kits from Mesoscale Discovery (Gaithersburg, Md. 20877).
(§2) SAS PROC MIXED was used to fit the cross-over model (Littell R C, Milliken G A, Stroup W W, Wolfinger R D, Schabenberger O. SAS System for Mixed Models. Cay, N.C.: SAS Institute Inc.; 2006). Transformations were used when appropriate to stabilize the variances among the diets and periods. The fixed effects were order, diet, the interaction and the covariate; and the random effect was subjects within order. The test for order is a test for carry-over effect. […] Comparisons were made between the values at the end of placebo and LG treatments and using the baseline data as a covariate. Results are presented as means±SEM. Differences were considered statistically significant for P value<0.05.

[2] = test system: peripheral blood mononuclear cells (PBMNC); assay: Ex-vivo production of cytokines by PBMNC; type: in vivo, human
Method: Peripheral blood mononuclear cells (PBMNC) were isolated by using Dulbecco's phosphate buffered saline (DPBS) and suspended in Russ's-10 medium containing 10% autologous sera at concentrations of 1 million/mL. PBMNC were cultured in Costar 96-well sterile flat bottom plates coated with mouse anti-human CD3 and CD28 to stimulate T cells. Another set of wells were stimulated with LPS (final concentration 10 ng/mL) to stimulate monocytes. Cell culture supernatants were collected at 24, 48, and 72 hr after stimulation by centrifugation. Cell culture supernatants were stored at −80° C. until tested for cytokine concentrations. All cytokines were analyzed on a BioPlex instrument (BioRad Laboratories, Richmond, Calif.) with multiplex reagents kits (Millipore Corp., Danvers, Mass.).
(§3) Results are presented as means±SEM.

[3] = test system: alanine amino transferase (ALT); assay: Serum alanine amino transferase (CMP); type: in vivo, human; details: 500 mg/d, 56 days
Method: as §1, §2

[4] = Complete blood cell count (hematological parameters); type: in vivo, human; parameters: Monocytes / Eosinophil / Basophils / Platelets / WBC / Neutrophils / Lymphocytes: unit not given here
Method: Complete and differential cell counts were performed at the hematology laboratory of University of California Medical Center (UCDMC), Sacramento using Beckman Coulter LH 700.
as §3

[5] = Lipoprotein size and sub fraction concentrations by NMR; type: in vivo, human
Method: Mean particle size, total number of particles and their number within different subclasses of VLDL, LDL, and HDL, were determined by NMR methods. For this analysis frozen plasma samples were shipped in dry ice by overnight delivery to LipoScience Inc., who performed the analysis.
as §3

[6] = serum, End LG, n = 10, mean ± SEM
[7] = cells stimulated with CD3/28 (each 0.75 μg/mL, 72 hr), End LG, 500 mg/d, 56 days, n = 10, mean ± SEM
[8] = cells stimulated with LPS (10 ng/mL, 24 hr), End LG, 500 mg/d, 56 days, n = 10, mean ± SEM
[9] = End LG, 500 mg/d, 56 days, n = 10, mean ± SEM
[10] = plasma, NMR, End LG, 500 mg/d, 56 days, n = 10, mean ± SEM

## CC1(C)O[C@H]2CC(=O)OC[C@]23[C@H]2CC[C@@](C)([C@@H](O[C@@H]4O[C@H](CO)[C@@H](O)[C@H](O)[C@H]4O)c4ccoc4)[C@@]4(O[C@@H]4C(=O)O)[C@]2(C)C(=O)C[C@@H]13 [LG, limonin glucoside]
[1]; [6]
  Alkaline phosphatase: 59.5 ± 3.47 U/L
[1]; vs end of placebo treatment, p=0.025
  decrease of serum alkaline phosphatase (ALP) activity: 10.1%
[2]; LG vs placebo treatment
  ex-vivo secretion of cytokines by stimulated T cells and monocytes: did not differ; also recorded: trend for decrease
[2]; [7]
  IL-2: 58.8 ± 25.8 pg/mL
  IL-4: 66.7 ± 12.8 pg/mL
  IL-10: 779 ± 126 pg/mL
  Interferon γ: 51700 ± 10536 pg/mL
  TNF α: 6723 ± 970 pg/mL
[2]; [8]
  IL-1β: 4731 ± 1123 pg/mL
  IL-6: 10926 ± 1586 pg/mL
  TNF α: 1354 ± 231 pg/mL
[2]; ex vivo, CD3/28 or LPS stimulated PBMNC, not significant
  concentrations of all secreted cytokines except IL-10 lower than after placebo: 8-18%
[3]; [6]
  Alanine amino trasferase: 25.2 ± 5.08 U/L
[3]; vs end of placebo treatment, p=0.041
  decrease of serum alanine aminotransferase (ALT) activity: 13.1%
[4]; [9]
  Basophils: 0.03 ± 0.00
  Basophils, % of WBC: 0.47 ± 0.04 % of WBC
  Eosinophil: 0.18 ± 0.03
  Eosinophil, % of WBC: 3.32 ± 0.52 % of WBC
  Hematocrit: 41.47 ± 1.00%
  Hemoglobin: 13.94 ± 0.61 g/dL
  Lymphocytes: 1.80 ± 0.14
  Lymphocytes, % of WBC: 33.01 ± 2.09 % of WBC
  MCH: 31.08 ± 0.39 pico grams
  MCHC: 33.98 ± 0.16%
  MCV: 91.44 ± 1.29 microns
  Monocytes: 0.42 ± 0.03
  Monocytes, % of WBC: 7.79 ± 1.03 % of WBC
  Neutrophils: 3.14 ± 0.30
  Neutrophils, % of WBC: 55.41 ± 3.16 % of WBC
  Platelets: 229.00 ± 12.74
  RBC: 4.54 ± 0.13 × 10^−12/L
  RDW: 13.12 ± 0.13%
  WBC: 5.55 ± 0.38
  pH: 6.75 ± 0.27
[4]; vs end of placebo treatment, baseline as covariate
  effect on hematological variables: did not alter
[5]; [10]
  Calculated TG total: 150.50 ± 22.84 mg/dL
  Calculated cholesterol total: 208.50 ± 5.45 mg/dL
  HDL cholesterol total: 46.10 ± 2.65 mg/dL
  IDL cholesterol: 8.93 ± 1.83 mg/dL
  IDL particles: 71.80 ± 14.77 nmols/L
  LDL total cholesterol: 137.60 ± 5.14 mg/dL
  Large HDL cholesterol: 20.19 ± 3.24 mg/dL
  Large HDL particles: 6.57 ± 0.99 μmols/L
  Large LDL cholesterol: 67.24 ± 9.75 mg/dL
  Large LDL particles: 495.80 ± 71.47 nmols/L
  Large VLDL & chylomicron TG: 33.01 ± 13.18 mg/dL
  Large VLDL & chylomicron particles: 3.50 ± 1.64 nmol/L
  Mean particle size (HDL particles): 8.86 ± 0.12 nm
  Mean particle size (LDL particles): 20.94 ± 0.26 nm
  Mean particle size (VLDL & chylomicron particles): 48.60 ± 2.25 nm
  Medium HDL cholesterol: 5.87 ± 1.87 mg/dL
  Medium HDL particles: 4.54 ± 1.43 μmols/L
  Medium VLDL & chylomicron particles: 37.70 ± 8.22 nmol/L
  Medium VLDL TG: 53.08 ± 11.93 mg/dL
  Medium small LDL cholesterol: 22.60 ± 3.80 mg/dL
  Medium small LDL particles: 208.40 ± 35.06 nmols/L
  Small HDL cholesterol: 20.03 ± 1.91 mg/dL
  Small HDL particles: 20.25 ± 1.94 μmols/L
  Small LDL cholesterol: 61.47 ± 10.32 mg/dL
  Small VLDL & chylomicron particles: 45.47 ± 5.95 nmol/L
  Small VLDL TG: 20.32 ± 2.64 mg/dL
  Total HDL particles: 31.35 ± 0.95 μmols/L
  Total LDL particle: 1582.80 ± 118.15 nmols/L
  Total VLDL & chylomicron particles: 86.69 ± 13.15 nmol/L
  Total small LDL particles: 1015.20 ± 169.46 nmols/L
  VLDL & chylomicron total TG: 106.50 ± 22.20 mg/dL
  Very small LDL cholesterol: 38.91 ± 6.55 mg/dL
  Very small LDL particles: 806.80 ± 134.82 nmols/L
[5]; vs end of placebo treatment
  effect on mean particle sizes and sub-fraction concentrations of VLDL, LDL, HDL: did not alter
